According to publication PMC11079064, “Discovery of a brain penetrant small molecule antagonist targeting LPA1 receptors to reduce neuroinflammation and promote remyelination in multiple sclerosis” (Scientific Reports, 2024):
Read-outs that look alike come from different tables or passages of the source.

Key:
rat oligodendrocytes = experiment: Oligodendrocyte protection assay (TNFα/IFNγ insult); format: cell-based; settings: TNFα and IFNγ insult
Excerpt: TNFα and IFNγ are two cytokines that, while not normally expressed in the CNS, are elevated in MS[29]. These cytokines can be secreted by both macrophages and microglia[30],[31]. Receptors for these cytokines (TNFR1, TNFR2, and IFNGR) are expressed in oligodendrocytes. Of note, TNFR1 and 2 have been found on oligodendrocytes bordering MS lesions[23],[32], [33]. Further, although receptor expression for these cytokines on OPCs is unknown, addition of either of these cytokines impact differentiation in isolated OPC cultures[28],[34]. Cultured rat OPCs were differentiated with T3 for 24 h then treated with both TNFα and IFNγ Upon cytokine addition, we observed significant cell death consistent with previous observations (Fig. 6C, left[22],[35]–[37]).
OPC Assay: OPCs were plated in poly-L-lysine (Millipore Sigma, St. Louis, MO) coated 96-well Viewplates™ (Perkin Elmer, Boston, MA) at a seeding density of […] per well. Cells were maintained in media composed of DMEM (Invitrogen, Carlsbad, CA) supplemented with B27 (Invitrogen, Carlsbad, CA), N2 (Invitrogen, Carlsbad, CA), penicillin–streptomycin (Invitrogen, Carlsbad, CA), N-acetylcysteine (Millipore Sigma, St. Louis, MO), forskolin (Millipore Sigma, St. Louis, MO), and 25 ng/ml PDGF-AA (Peprotech, Cranbury, New Jersey) for 24 h at 37°, 5% CO2. Compounds were diluted 10× at a concentration range of 0.001–3 µM. […]

[1] = Plasma concentration time course after oral dose; format: in vivo; settings: 3 mg/kg oral, mouse
[2] = system: human cortical slice cultures; experiment: Human cortical slice culture, CC1+ cells by immunohistochemistry; format: cell-based
Description: Human donor brain was received 14 h after death on wet ice. Upon receipt, the brain was immediately placed into-ice cold DPBS without calcium or magnesium. Cortical regions containing gray-white border were isolated then sliced on a McIlwain tissue chopper set at 400 µm thickness. […] Slices were then processed for qPCR or immunohistochemistry.
Immunohistological evaluation of oligodendrocytes in human brain slice culture: After compound treatment, slices were fixed in 4% PFA overnight. Slices were gently lifted from the membrane insert and washed with at least five 15 min washes in DPBS containing 0.5% Triton-X 100 (0.5%-DPBS) followed by overnight incubation in primary antibodies in blocking solution. Antibodies used were CC-1 (mouse, 1:250, Millipore, Temecula, CA), Olig2 (rabbit 1:250 CellMarque). Slices were washed with at least five 15 min washes in 0.5%-DPBS followed by incubation with secondary antibodies (anti-mouse Alexa488; anti-rabbit, Alexa568, and Hoechst counterstain) in 0.5%-DPBS. All secondary antibodies were produced in goat (Invitrogen, Carlsbad, CA, Carlsbad, CA) and used at 1:250. Filters were excised from insert, mounted with Fluoromount (Millipore Sigma, St. Louis) on a microscope slide and coverslipped. 2 images per slice were acquired using a Nikon A1R confocal microscope and NIS-Elements software. Images were thresholded and counted using ImageJ.

For `COc1ccc(NC(=O)N(c2ccccc2C(C)C)C2CCC(C(=O)O)CC2)c(OC(F)F)n1` (stereo not drawn) [PIPE-791], which EC50 (rat oligodendrocytes; data not shown, read-out: EC50 of total cellular viability with Alamar blue) is on record?
The EC50 was 39.6 nM.

And the EC50 (rat oligodendrocytes; read-out: EC50 of protection of MBP+ oligodendrocytes)?
The EC50 was 125 nM.

What about the “plasma concentration after 3 days” value [1] of the same compound?
The value was “below the limit of detection”.

And the “time of peak plasma concentration” value [1]?
The value was 2 h.

What about the “CC1+ cells” value ([2]; 100 nM) of the same compound?
The value was “significant increase”.

And the “differentiation by number of CC1+ cells” value ([2]; 300 nM)?
The value was “significant differentiation”.
